Measured values as given in patent US20120202849A1, “PHARMACEUTICAL COMPOSITIONS FOR THE TREATMENT/PROPHYLAXIS OF NON-ALCOHOLIC FATTY LIVER DISEASE” (priority 2009, published 2012).

Tests used:
[1] = test system: fructose induced fatty liver; test: Fructose induced fatty liver (NAFLD) in rats: biochemical parameters, body and liver weight, liver index after 14 days oral treatment; assay type: in vivo, Wistar rats; details: monotherapy or high dose combination: HCQ 160 mg/kg, ATV 8 mg/kg, MET 500 mg/kg, Mean ± S.D.; for Alk. PO4: alkaline phosphatase; for Glucose: blood; for Liver Index: calculated from body weight and liver weight; for TC (Total Cholesterol) / TG (Triglyceride): serum
Description: The study was based on the experiment on rats with fatty liver induced by fructose feeding and given oral doses of different strengths of the corresponding drug samples for 14 days. It was concluded from the study that the protection given by the combination therapy is more as compared to monotherapy. […] In this experiment 66 Wistar rats weighing 150-200 g of either sex were divided randomly into 11 groups consisting of six rats each. […] Group 7 was NAFLD induced and treated with high dose combination of HCQ (160 mg/kg) and MET (500 mg/kg). Group 8 was NAFLD induced and treated with low dose combination of HCQ (80 mg/kg) and ATV (4 mg/kg). Group 9 was NAFLD induced and treated with high dose combination of HCQ (160 mg/kg) and ATV (8 mg/kg). Group 10 was NAFLD induced and treated with low dose combination of ATV (4 mg/kg), HCQ (80 mg/kg) and MET (250 mg/kg) whereas Group 11 was NAFLD induced and treated with high dose combination of ATV (8 mg/kg), HCQ (160 mg/kg) and MET (500 mg/kg). […] At the end of the therapy histopathological evaluations were performed.

[2] = test system: fructose induced fatty liver; test: Histopathological examination of NAFLD induced liver tissue; assay type: in vivo, Wistar rats; details: after 14 days; monotherapy or high dose combination: HCQ 160 mg/kg p.o., ATV 8 mg/kg p.o., MET 500 mg/kg
Method: In this experiment 66 Wistar rats weighing 150-200 g of either sex were divided randomly into 11 groups consisting of six rats each. Group 1 (normal control) consisted of normal rats that neither received fructose nor any drug, Group 2 served as NAFLD induced control (NAFLD was induced in rats by replacing water with 10% fructose solution for two weeks) which received vehicle orally, Group 3 was NAFLD induced and treated with HCQ (160 mg/kg), Group 4 was NAFLD induced and treated with ATV (8 mg/kg), Group 5 was NAFLD induced and treated with MET (500 mg/kg), Group 6 was NAFLD induced and treated with low dose combination of HCQ (80 mg/kg) and MET (250 mg/kg). Group 7 was NAFLD induced and treated with high dose combination of HCQ (160 mg/kg) and MET (500 mg/kg). Group 8 was NAFLD induced and treated with low dose combination of HCQ (80 mg/kg) and ATV (4 mg/kg). Group 9 was NAFLD induced and treated with high dose combination of HCQ (160 mg/kg) and ATV (8 mg/kg). Group 10 was NAFLD induced and treated with low dose combination of ATV (4 mg/kg), HCQ (80 mg/kg) and MET (250 mg/kg) whereas Group 11 was NAFLD induced and treated with high dose combination of ATV (8 mg/kg), HCQ (160 mg/kg) and MET (500 mg/kg). The study drugs suspended in vehicle [0.1% w/v suspension of Tween 80 and carboxymethylcellulose (CMC) in water] were administered for 14 days. After 14 days treatment, all the animals were sacrificed under chloroform anesthesia and blood was collected for determination of blood glucose levels, triglyceride levels, SGPT, SGOT, alkaline phosphatase and total cholesterol using autoanalyser (Microlab 2000) Liver index was also calculated based upon the body weight and liver weight. At the end of the therapy histopathological evaluations were performed.

[3] = patients treated with hydroxychloroquine; cited from earlier work
[4] = patients on combined insulin and hydroxychloroquine therapy; average; cited from earlier work

Row | Compound | Alk. PO4 [1] [U/L] | Glucose [1] [mg/dL] | Liver Index [1] | SGOT [1] [U/L] | SGPT [1] [U/L] | TC (Total Cholesterol) [1] [mg/dL] | TG (Triglyceride) [1] [mg/dL] | Histopathological examination of liver [2] | Liver Weight [1] [g] | Decrease in serum levels of cholesterol [3] | Reduction of daily insulin dose [4] [%]
1 | CC(C)c1c(C(=O)Nc2ccccc2)c(-c2ccccc2)c(-c2ccc(F)cc2)n1CC[C@@H](O)C[C@@H](O)CC(=O)O [ATV, Atorvastatin] | 54.66 ± 2.58 | 159.33 ± 9.07 | 3.20 ± 0.24 | 114.00 ± 3.50 | 37.5 ± 2.42 | 137.66 ± 5.20 | 463.33 ± 12.12 | the degree of hepatic injury including steatosis and fatty infiltration were attenuated |  |  | 
2 | CCN(CCO)CCCC(C)Nc1ccnc2cc(Cl)ccc12 (stereo not shown) [HCQ, Hydroxychloroquine] | 63.16 ± 4.07 | 157.16 ± 7.93 | 4.53 ± 0.10 | 137.83 ± 10.59 | 44.83 ± 2.78 | 159.66 ± 10.23 | 556.66 ± 12.21 | did not show any recovery from fatty change | 7.64 ± 0.33 | approximately 10% | 30
3 | CN(C)C(=N)N=C(N)N [MET, Metformin] | 61 ± 6.32 | 125.16 ± 6.24 | 4.50 ± 0.30 | 132.33 ± 8.98 | 43.66 ± 7.33 | 155.66 ± 10.85 | 516.33 ± 56.25 | Liver cells showed regeneration and repair in the form of nucleolation and absence of coarse fat vacuoles | 7.63 ± 0.30 |  | 
